Laboratory results reported in patent EP4537815A1, “COMPOSITION COMPRISING A LASSO PEPTIDE […] A PHARMACEUTICALLY ACCEPTABLE NANOEMULSION” (priority 2023, dated 2025).
Entries after “also recorded” stand apart in the source; their conditions may differ. Where a SMILES comes first, the peptide text is derived from it. Bridges are numbered along the chain shown (N, C = ends).

Legend:
[1] = tested on: E. faecalis V583, E. faecium Bi21, E. faecium Bi22; test: In vitro bacterial growth in the presence of the lasso peptide alone; assay type: cell-based, Enterococcus
Method: (§1) An evaluation of bacterial growth was performed in vitro to assess the bacterial response to either vancomycin or bacitracin, in the absence or in the presence of either sviceucin or siamycin I.
(§2) Each strain was cultured at 37 °C in M17 medium (Terzaghi and Sandine 1975) supplemented with 0.5 % (weight/volume) glucose (GM17 medium). Overnight cultures are grown in GM17 broth and are used to inoculate the cultures for MIC measurement.
(§3) Lyophilized lasso peptides were solubilized first at 800 µM in a 1:1 solution of sterilized pure water and methanol. This stock is used for subsequent dilutions in GM17.
(§4) The lasso peptides (either siamycin I or sviceucin) were added for the relevant conditions at a final concentration of 10 µM, 5 µM or 2.5 µM. Bacterial strains from overnight cultures were added with an inoculum of 5 x 10^5 CFU/mL. The MIC corresponds to the lowest concentration in the wells where no growth is observed.

[2] = tested on: E. faecium Bi21 (exhibiting VanA resistance), E. faecium Bi22 (exhibiting VanA resistance); test: Vancomycin MIC by microdilution (CLSI) in GM17, VanA-resistant strains, with or without lasso peptide; assay type: cell-based
Method: as §1, §2, §3
(§5) The measurement of the minimal inhibitory concentration (MIC) of antibiotic (either vancomycin or bacitracin) was determined by the microdilution method in accordance with the guidelines of the Clinical and Laboratory Standards Institute (CLSI 2012), with GM17 medium used as a growth medium. Subsequent 2-fold serial dilutions of the antibiotic (either vancomycin or bacitracin) were performed to obtain concentrations ranging from 0.5 to 512 µg/mL.
as §4, with “observed. […]” for “observed.”

[3] = tested on: E. faecalis V583 (exhibiting VanB resistance); test: Vancomycin MIC by microdilution (CLSI) in GM17, VanB-resistant strain, with or without lasso peptide; assay type: cell-based; settings: VanB-type
Method: as §1, §2, §3, §5
as §4, with “observed. […]” for “observed.”

[4] = tested on: bacitracin resistant Gram-positive bacteria belonging to the Enterococcus genus; test: Bacitracin MIC by microdilution (CLSI) in GM17, with or without lasso peptide; assay type: cell-based
Method: as §1, §2, §3, §5
as §4, with “observed. […]” for “observed.”

SMILES	Growth in the presence of the lasso peptide alone ([1]; lasso peptide at 2.5 µM)	Growth in the presence of the lasso peptide alone ([1]; lasso peptide at 5 µM)	Vancomycin MIC (VanA-resistant strains) ([2]; in the presence of the lasso peptide at 5 µM)	effect on vancomycin resistance ([2]; lasso peptide at 2.5 µM combined with vancomycin, VanA-type)	effect on vancomycin resistance ([3]; lasso peptide at 2.5 µM combined with vancomycin)	effect on bacitracin resistance ([4]; lasso peptide at 2.5 µM combined with bacitracin)	effect on vancomycin resistance ([3]; lasso peptide at 10 µM combined with vancomycin)	effect on bacitracin resistance ([4]; lasso peptide at 10 µM combined with bacitracin)
CC[C@H](C)[C@@H]1NC(=O)[C@H](C)NC(=O)[C@H](Cc2ccc(O)cc2)NC(=O)CNC(=O)[C@@H]2CSSC[C@@H]3NC(=O)C[C@H](NC(=O)[C@H](CC(N)=O)NC(=O)[C@H](CSSC[C@@H](C(=O)N[C@@H](Cc4ccccc4)C(=O)N[C@@H](Cc4c[nH]c5ccccc45)C(=O)O)NC(=O)[C@H](C(C)C)NC1=O)NC(=O)[C@H](CO)NC(=O)CNC(=O)[C@H](C(C)C)NC(=O)CNC(=O)[C@H](CC(C)C)NC3=O)C(=O)N[C@@H](Cc1ccccc1)C(=O)N[C@@H](C)C(=O)NCC(=O)N2 [Siamycin I, siamycin I] (CLGVGSCNDFAGCGYAIVCFW-OH; disulfide 1-13, 7-19 (inferred); lactam N-9 (inferred); C-terminus assumed)	Growth slowed down but not inhibited	exhibits a growth inhibition activity; also recorded: Growth inhibited	0 µg/mL	reverses vancomycin resistance	reverses vancomycin resistance	reverses bacitracin resistance		
CC[C@H](C)[C@@H]1NC(=O)[C@H](Cc2c[nH]c3ccccc23)NC(=O)[C@H](C)NC(=O)[C@H]([C@@H](C)O)NC(=O)CNC(=O)[C@@H]2CSSC[C@@H]3NC(=O)C[C@H](NC(=O)[C@H]([C@@H](C)O)NC(=O)[C@H](CSSC[C@@H](C(=O)N[C@H](C(=O)O)C(C)C)NC1=O)NC(=O)[C@H](CC(=O)O)NC(=O)CNC(=O)CNC(=O)[C@H](Cc1c[nH]c4ccccc14)NC(=O)[C@H](C(C)C)NC3=O)C(=O)N[C@@H](Cc1ccccc1)C(=O)N[C@@H](CC(C)C)C(=O)NCC(=O)N2 [Sviceucin, sviceucin] (CVWGGDCTDFLGCGTAWICV-OH; disulfide 1-13, 7-19 (inferred); lactam N-9 (inferred); C-terminus assumed)							reverses vancomycin resistance	reverses bacitracin resistance
